From paper PMC3486876 (PLoS Neglected Tropical Diseases, 2012)
Where “and” joins values, the source holds several entries; their conditions need not be identical. Equal values may be shown once. Read-outs that look alike come from different tables or passages of the source. Marks after values point to notes of the source that are not given here.

Columns and labels:
[1] = target: T1, rat α1β2γ2 GABA(A) receptor (Rattus norvegicus, UniProt P18508+P62813+P63138); experiment: Two-electrode voltage-clamp of GABA(A) receptor expressed in Xenopus laevis oocytes; format: cell-based; conditions: for Emax: read-out: Emax (maximum potentiation relative to GABA alone)
T1 construct: expressed in transfected cells; host or cells: Xenopus laevis oocytes injected with cRNA (constructs a gift from Dr Erwin Sigel)
T1 sequence (P62813 28-455): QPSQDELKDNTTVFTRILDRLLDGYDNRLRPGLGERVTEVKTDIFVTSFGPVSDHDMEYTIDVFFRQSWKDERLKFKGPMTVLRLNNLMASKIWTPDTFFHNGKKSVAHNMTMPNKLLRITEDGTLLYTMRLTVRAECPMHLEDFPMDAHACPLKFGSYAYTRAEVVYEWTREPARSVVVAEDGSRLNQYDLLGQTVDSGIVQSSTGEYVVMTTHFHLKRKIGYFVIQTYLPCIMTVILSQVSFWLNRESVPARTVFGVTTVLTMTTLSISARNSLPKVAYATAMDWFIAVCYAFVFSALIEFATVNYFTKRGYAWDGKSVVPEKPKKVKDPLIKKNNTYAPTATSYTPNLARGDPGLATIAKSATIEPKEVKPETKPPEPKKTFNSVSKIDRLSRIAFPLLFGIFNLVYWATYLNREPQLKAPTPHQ
T1 sequence (P63138 25-474 limits assumed): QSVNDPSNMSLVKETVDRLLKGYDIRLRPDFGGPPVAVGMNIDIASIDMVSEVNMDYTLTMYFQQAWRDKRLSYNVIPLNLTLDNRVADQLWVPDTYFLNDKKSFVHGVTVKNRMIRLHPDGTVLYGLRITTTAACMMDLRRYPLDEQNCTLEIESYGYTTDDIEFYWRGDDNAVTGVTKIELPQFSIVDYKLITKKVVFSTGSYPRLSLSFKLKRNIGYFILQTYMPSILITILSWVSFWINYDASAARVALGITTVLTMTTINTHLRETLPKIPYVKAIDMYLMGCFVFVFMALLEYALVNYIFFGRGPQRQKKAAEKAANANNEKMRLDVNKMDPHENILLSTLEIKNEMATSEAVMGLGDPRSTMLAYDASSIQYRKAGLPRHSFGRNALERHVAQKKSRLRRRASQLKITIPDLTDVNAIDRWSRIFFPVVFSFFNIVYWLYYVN
T1 sequence (P18508 39-466): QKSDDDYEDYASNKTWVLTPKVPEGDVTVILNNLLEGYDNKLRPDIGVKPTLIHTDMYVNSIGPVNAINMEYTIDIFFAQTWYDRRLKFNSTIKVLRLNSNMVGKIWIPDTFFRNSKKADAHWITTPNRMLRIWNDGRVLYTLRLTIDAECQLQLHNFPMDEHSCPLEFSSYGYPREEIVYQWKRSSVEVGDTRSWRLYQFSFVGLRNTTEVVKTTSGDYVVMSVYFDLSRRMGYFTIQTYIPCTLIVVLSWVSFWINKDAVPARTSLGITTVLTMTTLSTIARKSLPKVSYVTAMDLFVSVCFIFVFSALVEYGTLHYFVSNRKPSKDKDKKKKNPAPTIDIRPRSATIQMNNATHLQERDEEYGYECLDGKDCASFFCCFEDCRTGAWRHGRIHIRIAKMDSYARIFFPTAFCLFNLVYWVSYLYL
Description: Oocytes from X. laevis, injected with foreign cDNA of the receptor of choice, are a commonly used tool for studying the activity of plasma membrane receptors. […] Isolation of oocytes from the frogs, defolliculation, culturing of the oocytes and injection of cRNA were performed as described previously. Oocytes were injected with 46 nl of RNA solution, with RNA coding for α1, β2 and γ2 subunits at a ratio of 10∶10∶50 nM [30]. The injected oocytes were incubated in modified Barth's solution [90 mM NaCl, 3 mM KCl, 0.82 mM MgSO4, 0.41 mM CaCl2, 0.34 mM Ca(NO3)2, 100 U/ml penicillin, 100 µg/ml streptomycin and 100 µg/ml kanamycin, 5 mM HEPES pH 7.6] at 18°C for approximately 36 h before the measurements to ensure the expression of a functional receptor.
Electrophysiological experiments were performed by the two-electrode voltage-clamp method. Measurements were done in ND96 medium containing 96 mM NaCl, 2 mM KCl, 1 mM MgCl2, 1.8 mM CaCl2 and 5 mM HEPES, pH 7.5, at a holding potential of −80 mV. Currents were measured using a custom-made two-electrode voltage clamp amplifier in combination with an XY recorder (90% response time, 0.1 s). The intracellular electrodes were filled with 3 M KCl (resistance of 0.5–1.5 MΩ). […] The perfusion solution (6 ml/min) was applied through a glass capillary with an inner diameter of 1.35 mm. […] The modulatory compounds (IVM and MOX) were first dissolved in DMSO at 20 mM and then diluted in ND96 to the final concentration.
Concentration ranges used were: IVM: 0.5 nM–10 µM; MOX: 1 nM–5 µM.
A washout period of 5 min between each agonist application was introduced, allowing receptors to fully recover from desensitization. The perfusion system was cleaned, after application of MLs, between each experiment by washing with 10% DMSO in ND96 to avoid contamination. Three or four different batches of oocytes were used to collect data for each analysis.
All experiments were conducted at least in triplicate. Differences in ML tissue concentrations were analyzed by one-way analysis of variance (ANOVA) with a Tukey post-test and are expressed as mean ± standard deviation (S.D.). […] Half-maximal concentrations (EC50), slope factors (Hill coefficients, nH) and maximal potentiation values for ML-induced activation of current were obtained using the Hill equation. Statistical analysis was performed using unpaired t-tests with Welch's correction to allow for differences in variances (GraphPad Instat, San Diego, CA, USA). Differences were considered statistically significant when p<0.05.

[2] = test system: acetylcholine receptors; design: method as in PMID 17707779; conditions: cited from earlier work
[3] = test system: Mdr1ab(−/−) mice; experiment: Neurological symptoms after subcutaneous administration; format: in vivo, mouse; conditions: for Neurological signs: 0.46 µmol/kg SC; for Start of neurotoxic signs (lethargy, tremors and/or ataxia): dose rates close to the respective LD50 (0.46 IVM, 2.3 MOX µmol/kg)
Description: (§1) For acute toxicity experiments, Mdr1ab(−/−) mice (2–8 per dose rate) were injected subcutaneously with drug solutions at dose rates ranging from 0.1–1.75 mg/kg bw (0.11–2.0 µmol/kg bw) for IVM and 0.2–8.2 mg/kg bw (0.31–12.9 µmol/kg bw) for MOX. […] Mice were euthanized when severe tremors or ataxia were noted.

[4] = test system: wild-type mice; conditions: cited from earlier work
[5] = Acute toxicity (14-day survival, LD50) after subcutaneous administration; conditions: mouse, in vivo, sc, Mdr1ab(−/−) mice, survival over 14 days, determined graphically
Description: as §1

[6] = no reference given; cited from earlier work
[7] = test system: Mdr1a-deficient mice; design: method as in PMID 7910522; conditions: Mdr1a-deficient mice mutated on only the abcb1a gene; cited from earlier work
[8] = test system: P-gp-deficient dogs; conditions: cited from earlier work
[9] = test system: purinergic (ATP) (cationic) receptors; conditions: cited from earlier work
[10] = Drug concentration in plasma and brain (HPLC) in Mdr1ab(−/−) mice; format: in vivo, mouse; conditions: 24 h post-treatment; for Brain concentration at LD50: determined graphically from Figure 3A; for Brain-to-plasma ratio (slope of brain vs plasma concentration): increasing doses
[11] = Drug concentration in plasma and brain (HPLC) in wild-type mice; format: in vivo, mouse; conditions: 24 h post-treatment; for Brain concentration at LD50: determined graphically from Figure 3B; for Brain-to-plasma ratio (slope of brain vs plasma concentration): increasing doses
Description: (§2) Mice were anesthetized 2 h or 24 h after administration with isoflurane and heparinized blood samples were collected from the orbital sinus vein. Immediately thereafter, mice were sacrificed by cervical dislocation and brains were rapidly removed. Blood samples were centrifuged at 1500 g for 10 min at 4°C and the plasma fraction was collected and stored at −20°C until analysis. The brains were washed in saline solution and frozen at −20°C until analysis.
(§3) ML concentrations were determined in plasma and brain by high performance liquid chromatography (HPLC) with fluorescence detection according to previously described and validated methods, [25]. In brief, plasma and tissues were homogenised in acetonitrile (1∶1 v/v or 1∶2 v/w, respectively). Samples were centrifuged at 2000 g and the supernatant applied to a Supelco C18 cartridge (Supelco Inc., Bellefonte, PA, USA) by using automated solid phase extraction (SPE). […] The eluate was evaporated and the dry extract was processed to obtain a fluorophore derivative by dissolving it in 1N-methylimidazole and trifluoroacetic anhydride solutions. Samples were injected into the HPLC system (PU980 pump, Jasko, Tokyo, Japan; 360 automatic injector, Kontron, Paris, France; RF-551 fluorescence detector, Shimadzu, Kyoto, Japan). For IVM and MOX a Supelcosil LC18 column (250×4.6 mm, 5 µm, Supelco, Bellefonte, PA, USA) was used with acetic acid (0.2% in water)∶methanol∶acetonitrile (4∶40∶56, v/v/v) as mobile phase.

[12] = test system: humans; design: method as in clinicaltrials.gov NCT00856362, NCT00300768, NCT00790998; conditions: approximately 1,700 people; ref clinicaltrials.gov NCT00856362, NCT00300768, NCT00790998; cited from earlier work
[13] = Drug concentration in plasma and brain (HPLC) in Mdr1ab(−/−) mice; format: in vivo, mouse; conditions: 0.23 µmol/kg SC
Description: For drug plasma concentration and brain accumulation assessment, Mdr1ab(−/−) mice were injected subcutaneously with an equivalent molar dose rate for both MLs in Mdr1ab(−/−) mice (6 animals per group): 0.23 µmol/kg, corresponding to 0.20 mg/kg and 0.15 mg/kg for IVM and MOX, respectively. Mice were sacrificed at 2 or 24 h after treatment.
as §2, §3

[14] = test system: P-gp; design: method as in PMID 17134887; conditions: cited from earlier work
[15] = potentiation of current evoked by 2 µM GABA (EC10)
[16] = oral administration, ref 20 (IVM), 21 (MOX)

NCCCC(=O)O [GABA, γ-aminobutyric acid]
EC10 (concentration producing 10% of maximal response) ([1]; GABA alone, n = 12): 2080 ± 1180 nM
Hill slope ([1]; GABA alone, n = 12): 1.30±0.07 and 1.30±0.02

CCC(C)[C@H]1O[C@]2(CC[C@@H]1C)C[C@@H]1C[C@@H](C/C=C(\C)[C@@H](O[C@H]3C[C@H](OC)[C@@H](O[C@H]4C[C@H](OC)[C@@H](O)[C@H](C)O4)[C@H](C)O3)[C@@H](C)/C=C/C=C3\CO[C@@H]4[C@H](O)C(C)=CC(C(=O)O1)[C@]34O)O2 (some centres unmarked) [Ivermectin]
Concentration required to potentiate the receptors [2]: 30 µM
Behaviour of mice ([3]; 0.11 µmol/kg SC): no changes in the behaviour of mice were observed
Neurological symptoms observed ([3]; 0.11 µmol/kg SC, 1 h post-treatment (ditto marks to 14 d)): Visually normal
Neurological symptoms observed ([3]; 0.40 µmol/kg SC, 1 h post-treatment (ditto marks to 5 h)): Visually normal
Neurological symptoms observed ([3]; 0.40 µmol/kg SC, 6 h post-treatment): Lethargy
Neurological symptoms observed ([3]; 0.40 µmol/kg SC, 7 h post-treatment, these mice euthanized): 2/5 Ataxia ^c/tremor ^d ^†
Neurological symptoms observed ([3]; 0.40 µmol/kg SC, 12 h post-treatment): 3/5 Sleepiness
Neurological symptoms observed ([3]; 0.40 µmol/kg SC, 1 d post-treatment (ditto marks to 14 d)): Visually normal
Neurological signs ([3]; 6 h post-administration): severe neurotoxic signs
Neurological signs ([3]; just after administration): hyperactivity
Neurological symptoms observed ([3]; 0.69 µmol/kg SC, 2 h post-treatment): Rapid breathing
Neurological symptoms observed ([3]; 0.69 µmol/kg SC, 5 h post-treatment): Ataxia ^c
Neurological symptoms observed ([3]; 0.69 µmol/kg SC, 6 h post-treatment, mice euthanized): Lethargy ^†
Start of neurotoxic signs (lethargy, tremors and/or ataxia) [3]: 6 h
EC50 [1]: 33.8 ± 7.7 nM
Maximum potentiation of the GABA(A) receptor by IVM compared with MOX ([1]; co-application with 2 µM GABA): ~2 fold
Concentration to reach Emax [1, 15]: 0.49 µM
Hill slope [1, 15]: 1.52±0.45
Hill slope ([1]; potentiation of current evoked by 2 µM GABA (EC10), listed as IVM): 1.52
Emax [1]: 414 ± 66.1%
LD50 [4]: 27–34 ^b µmol/kg
LD50 [4, 16]: around 30 mg/kg
LD50 at 14 days [5]: 0.4 mg/kg and 0.46 µmol/kg
logP [6]: 4.8
LD50 [7]: 0.6–0.8 µmol/kg bw
Signs of neurotoxicosis ([8]; MDR1-deficient dogs, therapeutic dose 0.2 mg/kg): severe signs of neurotoxicosis
Concentration required to potentiate the receptors [9]: 3 µM

CO/N=C1\C[C@]2(C[C@@H]3C[C@@H](C/C=C(\C)C[C@@H](C)/C=C/C=C4\CO[C@@H]5[C@H](O)C(C)=C[C@@H](C(=O)O3)[C@]45O)O2)O[C@H](/C(C)=C/C(C)C)[C@H]1C [Moxidectin]
Brain concentration at LD50 [10]: 830 ^c pmol/g
Brain concentration at LD50 ([10]; listed as MOX): 830 pmol/g
Brain-to-plasma ratio (slope of brain vs plasma concentration) [10]: 2.6 (R^2 = 0.936) ^e ml/g
Brain-to-plasma ratio (slope of brain vs plasma concentration) ([10]; listed as MOX): 2.6 mL/g
Toxicity ([3]; 0.46 µmol/kg SC (same dose rate as IVM)): did not show any toxicity
Neurological symptoms observed ([3]; 2 µmol/kg SC, 1 h post-treatment): Visually normal
Neurological symptoms observed ([3]; 2 µmol/kg SC, 2 h post-treatment (ditto marks to 4 h; transient), listed as MOX): rapid breathing was transiently observed
Neurological symptoms observed ([3]; 2 µmol/kg SC, 5 h post-treatment (ditto marks to 14 d)): Visually normal
Neurological symptoms observed ([3]; 2.6 µmol/kg SC, 1 h post-treatment (ditto marks to 3 h)): Visually normal
Neurological symptoms observed ([3]; 2.6 µmol/kg SC, 4 h post-treatment (ditto marks to 8 h)): Sleepiness
Neurological symptoms observed ([3]; 2.6 µmol/kg SC, 12 h post-treatment, mice euthanized): Ataxia ^c/Tremor ^d ^†
Neurological symptoms observed ([3]; 4 µmol/kg SC, 1 h post-treatment): Balance problems
Neurological symptoms observed ([3]; 4 µmol/kg SC, 2 h post-treatment (ditto marks to 4 h)): Sleepiness
Neurological symptoms observed ([3]; 4 µmol/kg SC, 5 h post-treatment, mice euthanized): Ataxia ^c/Coma ^†
Start of neurotoxic signs (lethargy, tremors and/or ataxia) [3]: 4 h
EC50 [1]: 11.8 ± 9.2 nM
Concentration to reach Emax [1, 15]: 0.66 ^c µM
Hill slope [1, 15]: 0.34±0.56
Hill slope ([1]; potentiation of current evoked by 2 µM GABA (EC10), listed as MOX): 0.34±0.56 and 0.34
Emax [1]: 257 ± 40.6%
LD50 [4]: 70–131 ^b µmol/kg
LD50 [4, 16]: 86 mg/kg
LD50 at 14 days [5]: 1.47 mg/kg and 2.3 µmol/kg
logP [6]: 6
Brain concentration at LD50 [11]: 740–1380 ^d pmol/g
Brain concentration at LD50 ([11]; listed as MOX): 740 to 1380 pmol/g
Brain-to-plasma ratio (slope of brain vs plasma concentration) [11]: 0.09 (R^2 = 0.984) ^e ml/g
Brain-to-plasma ratio (slope of brain vs plasma concentration) ([11]; listed as MOX): 0.09 mL/g
Dose safely used ([8]; P-gp-deficient Collie dogs, spot-on application): up to 32.5 mg/kg
Signs of toxicosis ([8]; P-gp-deficient dogs sensitive to IVM, 100 µg/kg daily for 7 days): did not produce signs of toxicosis
Toxicological signs ([8]; dogs sensitive to 120 µg/kg oral IVM, similar molar dose rate, oral): did not produce any toxicological signs
Serious adverse events [12]: without evidence of any serious adverse events
Brain-to-plasma concentration ratio ([13]; 2 h): 0.3 ± 0.1 mL/g
Drug concentration in brain ([13]; 2 h): 18.8 ± 2.8 pmol/g
Drug concentration in brain ([13]; 2 h, listed as MOX): 18.8 ± 2.8 pmol/g
Brain-to-plasma concentration ratio ([13]; 24 h): 2.2 ± 0.7 mL/g
Drug concentration in brain ([13]; 24 h): 93.0 ± 28.9 pmol/g
Drug concentration in plasma ([13]; 24 h): 42.8 ± 9.3 nM
Brain-to-plasma concentration ratio ([13]; 24 h, listed as MOX): 2.2 ± 0.7 mL/g
concentration at 2 h ([13]; mouse, plasma, 2 h): 60 ± 14.5 nM
concentration at 24 h ([13]; mouse, plasma, 24 h): 42.8 ± 9.3 nM
Effectiveness in inhibiting transport activity by P-gp, fold less than IVM [14]: 10 fold
